According to patent publication US9079876B2, “Imidazole derivatives and preparation method and use thereof” (Beijing Orbiepharm Co., Ltd., priority 2010, dated 2015):

Key:
COX-1 = molecular target: T1, COX-1 (Canis lupus familiaris, UniProt Q8HZR1); assay: Dog whole blood in vitro activity assay, COX-1; format: cell-based, beagle dog; settings: read-out: IC50 (μg/mL) COX-1 (converted)
T1 construct: in vitro activity study using beagle dog whole blood was conducted; from tissue; host or cells: beagle dog whole blood (platelets, by the same method as for human blood)
T1 sequence (Q8HZR1 28-603): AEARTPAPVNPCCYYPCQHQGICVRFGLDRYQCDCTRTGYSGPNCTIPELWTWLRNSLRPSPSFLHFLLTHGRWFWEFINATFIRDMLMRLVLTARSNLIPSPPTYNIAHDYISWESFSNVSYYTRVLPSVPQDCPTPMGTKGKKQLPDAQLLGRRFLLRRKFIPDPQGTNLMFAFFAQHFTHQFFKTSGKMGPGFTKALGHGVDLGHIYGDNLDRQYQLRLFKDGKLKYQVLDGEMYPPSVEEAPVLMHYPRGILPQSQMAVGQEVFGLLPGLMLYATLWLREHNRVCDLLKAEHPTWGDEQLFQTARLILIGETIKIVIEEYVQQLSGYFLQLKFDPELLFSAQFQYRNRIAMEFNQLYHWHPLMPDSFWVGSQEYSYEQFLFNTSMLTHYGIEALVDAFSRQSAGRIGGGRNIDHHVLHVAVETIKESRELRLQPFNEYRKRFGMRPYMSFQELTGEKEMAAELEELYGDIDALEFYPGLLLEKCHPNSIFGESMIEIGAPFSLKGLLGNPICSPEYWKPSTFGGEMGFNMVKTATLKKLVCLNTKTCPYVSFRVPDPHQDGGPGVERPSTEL

[1] = tested on: mice forced swimming immobility time; assay: Forced swimming test in mice (anti-depression model); format: in vivo, Male Kunming mice
Description: In Vivo Study: The Forced Swimming Test in Mice (Evaluation on Anti-Depression Model)
Male Kunming mice, approximately 20 g, were randomized into six groups, i.e. normal group, positive drug group (fluoxetine 20 mg/kg), group A (5 mg/kg Compound 1), group B (10 mg/kg Compound 1), group C (20 mg/kg Compound 1), and group D (40 mg/kg Compound 1).
Single Dose Test: Mice were normally fed for 1 day and allowed to adapt to the environment. Then the mice were fasted (except water) for 16 hours, and were intragastrically administrated with a single dose of the test drug, and the normal group was intragastrically administrated with an equivalent amount of distilled water. 40 min after administration, the mice were placed in forced swimming test device (swimming environment: pool diameter 12.5 cm cylinder, water temperature 25° C. and water depth 10 cm). Mice swam for six minutes, and the immobility time (i.e., the time during which the limbs were immobile, or only the feet were thrashing or paddling) was recorded with an animal behavioral record system, for the latter 4 min within the 6 min recording period, and was used for statistical analysis.
(§1) Study with Three-Day Consecutive Dosing: Mice were normally fed for 1 day and allowed to adapt to the environment. Then the mice were intragastrically administrated with the test drug consecutively for three days (once per day). The normal group was intragastrically administrated equivalent amount of distilled water. Mice were fasted (except water) for 16 hours before the last dosing. 40 min after the last dosing, the mice were placed in forced swimming test device (swimming environment: pool diameter 12.5 cm cylinder, water temperature 25° C. and water depth 10 cm). Mice swam for six minutes, and the immobility time (i.e., the time during which the limbs were immobile, or only the feet were thrashing or paddling) was recorded with an animal behavioral record system, for the latter 4 min within the 6 min recording period, and was used for statistical analysis.
as §1, with “Seven-Day” for “Three-Day”, “seven” for “three”

[2] = tested on: mice tail suspension immobility time; assay: Tail suspension test in mice (anti-depression model); format: in vivo, Male Kunming mice
Description: In Vivo Test: Tail Suspension Test in Mice (Evaluation on an Anti-Depression Model)
Male Kunming mice, approximately 20 g, were randomized into six groups, i.e. normal group, positive drug group (fluoxetine 20 mg/kg), compound 1: group A 5 mg/kg, group B 10 mg/kg, group C 20 mg/kg, and group D 40 mg/kg.
Single Dose Test: Mice were normally fed for 1 day and allowed to adapt to the environment. Then the mice were fasted (except water) for 16 hours, and were intragastrically administrated with a single dose of the compound. The normal group was intragastrically administrated with an equivalent amount of distilled water. 40 min after the administration, the mice were inverted and fixed to a tail suspension device, and the distance between the head and the desktop was about 30 cm. Immobility time was recorded with an analysis record system, for the latter 4 min within the 6 min recording period, and was used for statistical analysis.
(§2) Study with Three-Day Consecutive Dosing: Mice were normally fed for 1 day and allowed to adapt to the environment. Then the mice were intragastrically administrated with the test drug for 3 consecutive days (once per day), and the normal group was intragastrically administrated with an equivalent amount of distilled water. The mice were fasted (except water) for 16 hours before the last dosing. 40 min after the last dosing, the mice were inverted and fixed to the tail suspension device, and the distance between the head and the desktop was about 30 cm. Immobility time was recorded with an analysis record system, for the latter 4 min within the 6 min recording period, and was used for statistical analysis.
as §2, with “with Seven-Day” for “with Three-Day”, “intragastrically dosed” for “intragastrically administrated with the test drug”, “for 7” for “for 3”, “days (once/day),” for “days (once per day),”, “last administration.” for “last dosing.”, “last administration,” for “last dosing,”

[3] = 3 days consecutive administration, 10 mg/kg intragastric, in s (unit assumed)
[4] = 3 days consecutive administration, 20 mg/kg intragastric, in s (unit assumed)
[5] = 3 days consecutive administration, 40 mg/kg intragastric, in s (unit assumed)
[6] = 7 days consecutive administration, 5 mg/kg intragastric, 5 mg/kg, in s (unit assumed)
[7] = 7 days consecutive administration, 10 mg/kg intragastric, in s (unit assumed)
[8] = 7 days consecutive administration, 20 mg/kg intragastric, in s (unit assumed)
[9] = 7 days consecutive administration, 40 mg/kg intragastric, in s (unit assumed)
[10] = single dose, 10 mg/kg intragastric, 40 min after administration, in s (unit assumed)
[11] = single dose, 20 mg/kg intragastric, 40 min after administration, in s (unit assumed)
[12] = single dose, 40 mg/kg intragastric, 40 min after administration, in s (unit assumed)

With `CS(=O)(=O)c1ccc(-n2cnc(Cl)c2-c2ccccc2)nc1` [Compound 1, 2-(4-chloro-5-phenyl-1H-imidazol-1-yl)-5-(methylsulfonyl)pyridine] the IC50 (COX-1) was 219 µM, the “forced swimming Immobility time” value ([1]; 3 days consecutive administration, 5 mg/kg intragastric, 5 mg/kg) was “tendency of reduction in forced swimming immobility time” and the “forced swimming Immobility time” value ([1]; 3 days consecutive administration, 5 mg/kg intragastric, 5 mg/kg, in s (unit assumed)) was 119.73 ± 24.55. For the same compound, the “forced swimming Immobility time” value [1, 3] was 91.73 ± 22.08, the “forced swimming Immobility time” value [1, 4] was 83.12 ± 32.57 and the “forced swimming Immobility time” value [1, 5] was 63.32 ± 30.46. For the same compound, the “forced swimming Immobility time” value ([1]; 7 days consecutive administration, 5 mg/kg intragastric, 5 mg/kg) was “tendency of reduction in forced swimming immobility time”, the “forced swimming Immobility time” value [1, 6] was 102.72 ± 34.07 and the “forced swimming Immobility time” value [1, 7] was 86.40 ± 34.65. The “forced swimming Immobility time” value [1, 8] was 86.84 ± 30.21, the “forced swimming Immobility time” value [1, 9] was 83.84 ± 35.50 and the “forced swimming Immobility time” value ([1]; single dose, 5 mg/kg intragastric, 40 min after administration, 5 mg/kg) was “tendency of reduction in forced swimming immobility time”. For the same compound, the “forced swimming Immobility time” value ([1]; single dose, 5 mg/kg intragastric, 40 min after administration, 5 mg/kg, in s (unit assumed)) was 102.24 ± 27.33, the “forced swimming Immobility time” value [1, 10] was 92.85 ± 38.81 and the “forced swimming Immobility time” value [1, 11] was 87.55 ± 42.50. For the same compound, the “forced swimming Immobility time” value [1, 12] was 90.86 ± 39.53, the “tail suspension Immobility time” value ([2]; 3 days consecutive administration, 5 mg/kg intragastric, in s (unit assumed)) was 45.36 ± 12.09 and the “tail suspension Immobility time” value [2, 3] was 31.94 ± 8.76. The “tail suspension Immobility time” value [2, 4] was 33.64 ± 15.78, the “tail suspension Immobility time” value [2, 5] was 41.36 ± 14.22 and the “tail suspension Immobility time” value [2, 6] was 45.11 ± 16.88. For the same compound, the “tail suspension Immobility time” value ([2]; 7 days consecutive administration, 5 mg/kg intragastric, listed as test drug, 5 mg/kg) was “tendency of reduction in immobility time”, the “tail suspension Immobility time” value [2, 7] was 36.47 ± 15.13 and the “tail suspension Immobility time” value [2, 8] was 29.98 ± 9.87. For the same compound, the “tail suspension Immobility time” value [2, 9] was 29.70 ± 15.02, the “tail suspension Immobility time” value ([2]; single dose, 5 mg/kg intragastric, 40 min after administration, in s (unit assumed)) was 46.57 ± 16.46 and the “tail suspension Immobility time” value [2, 10] was 47.10 ± 17.93. The “tail suspension Immobility time” value [2, 11] was 43.25 ± 14.41 and the “tail suspension Immobility time” value [2, 12] was 46.58 ± 15.32.
